From patent publication US20260091026A1, “METHODS OF TREATING INFLAMMATORY DISEASES” (INTERLINE THERAPEUTICS, INC., priority 2023, published 2026)
pIC50: −log10 of the molar value.

How the values were obtained:
[1] = test system: THP1-Dual cells, NF-κB pathway (SEAP); assay: THP-1 Dual cell SEAP assay (L18-MDP stimulated); assay type: cell-based; conditions: Homo sapiens, 10 ng/mL L18-MDP, 20-24 h, SEAP readout, read-out: IFNγ THP1 IC50
Procedure: THP1-Dual™ cells (InvivoGen Cat #thpd-nfis) allow simultaneous assessment of the NF-κB pathway, by monitoring the activity of secreted embryonic alkaline phosphatase (SEAP) as well as the IRF pathway, by assessing the activity of a secreted luciferase (Lucia). Cells were cultured according to manufacturers' recommendations. For the assay, cell concentration was adjusted to 7.14×10^5 cells/mL in assay media (RPMI 1640, 2 mM L-Glutamine, 25 mM HEPES, 10% fetal bovine serum (heat-inactivated for 30 min at 56° C.), Pen-Strep (100 U/mL)) and 35 μL of cell suspension (˜25,000 cells) per well were added to a flat bottom 384-well plate (white opaque). Plate was centrifuged at 300 g for 2 min, compounds were added in serial dilution series according to the plate layout (volumes ˜500 nL-0.0152 nL) and plate was incubated at 37° C. in 5% CO2 for 30 min. Using assay media, a L18-MDP stock solution, that results in a final concentration of 10 ng/mL L18-MDP in each well when adding 15 μL to each well, was prepared. 15 μL of L18-MDP stock solution was added to each well, while 15 μL of assay media was added to the negative control wells. Plates were subsequently incubated at 37° C. in 5% CO2 overnight (20-24 h).
For the SEAP assay: without disturbing the cells at the bottom of the well, 15 μL supernatant was transferred to a clear 384-well flat bottom plate and 35 μL QUANTI-Blue Solution per well was added. Following a 2 h incubation at 37° C., the optical density (OD) was measured at 620-655 nm using a microplate reader (PheraStar FS microplate reader with protocol for OD 620-655 nm).
Values of media-only wells were subtracted and % inhibition for each compound concentration relative to the DMSO/L18-MDP-treated controls was calculated. Inhibition values+/−SD were fitted by non-linear regression using Prism software (GraphPad PRISM Software) to calculate IC50 values.

RIPK2 (KD)/XIAP (BIR2) = biological target: T1, RIPK2 (KD)/XIAP (BIR2) (Homo sapiens, UniProt O43353); assay: RIPK2-XIAP binding competition PPI assay (TR-FRET); conditions: for Emax: 50 nM of GSK583 = -100% activity, read-out: PPI Amax; for pIC50: GST-RIPK2 / His-XIAP (BIR2)-avi, 120 min at 23° C.
T1 construct: made in house; host or cells: baculovirus-infected Sf9 cells
Excerpt: The ability of selected compounds of Formula (I) to inhibit the binding of an His-XIAP (BIR2)-avi fusion protein to a GST-RIPK2 fusion protein was quantified employing the TR-FRET-based competition assay as described in the following paragraphs.
Recombinant fusion protein of N-terminal Glutathione-S-Transferase (GST) and a fragment of human RIPK2 (amino acids 1-310 of accession number 043353), expressed in baculovirus infected Sf9 cells, purified via glutathione affinity chromatography, was used as GST-RIPK2 fusion protein. Recombinant fusion protein of N-terminal 6xHistidine (His), a fragment of human XIAP (amino acids 152-231 of accession number P98170), and C-terminal avi tag, expressed in baculovirus infected Sf9 cells, purified via Nickel NTA affinity chromatography, was used as the His-XIAP (BIR2)-avi fusion protein.
For the assay, a working solution of 1 nM GST-RIPK2, 25 nM His-XIAP (BIR2)-avi, 6 nM Anti-His-XL665 […] (Revvity Catalogue No. 61HISXLB), and 0.5 nM Anti-GST-Tb(Revvity Catalogue No. 61GSTTLB) in 25 mM Tris-HCl 7.5, 0.5 mM ethylene glycol-bis(2-aminoethylether)-N,N,N′,N′-tetraacetic acid (EGTA), 10 mM magnesium chloride (MgCl2), 2.5 mM dithiothreitol (DTT), 0.01% (w/v) bovine serum albumin (BSA), 0.005% (w/v) Pluronic F-127 (Sigma), 0.5 mM sodium ortho-vanadate, 5 mM-Glycerophosphate disodium salt hydrate (BGP) was prepared. 50 nL of a 100-fold concentrated solution of each test compound in DMSO was dispensed via acoustic dispensing into a white low volume 384-well microtiter plate (Perkin Elmer Catalogue No. 6008280). Subsequently, 5 μL of the assay working solution were added.
The resulting mixture was incubated 120 min at 23° C. Subsequently, the amount of complex formed by the GST-RIPK2, XIAP (BIR2)-avi, Anti-His-XL665, and Anti-GST-Tb was evaluated by measurement of the resonance energy transfer from the Tb-cryptate to the XL665. Therefore, the fluorescence emissions at 520 nm and 665 nm after excitation at 337 nm were measured in a TR-FRET reader, e.g. a Pherastar FS(BMG Labtechnologies, Offenburg, Germany) or an Envision (PerkinElmer). The ratio of the emissions at 665 nm and at 520 nm was taken as the measure of the amount of the complex. The data were normalized (assay reaction without inhibitor=0% activity, 50 nM of GSK583=−100% activity).

T1 sequence (O43353 1-310): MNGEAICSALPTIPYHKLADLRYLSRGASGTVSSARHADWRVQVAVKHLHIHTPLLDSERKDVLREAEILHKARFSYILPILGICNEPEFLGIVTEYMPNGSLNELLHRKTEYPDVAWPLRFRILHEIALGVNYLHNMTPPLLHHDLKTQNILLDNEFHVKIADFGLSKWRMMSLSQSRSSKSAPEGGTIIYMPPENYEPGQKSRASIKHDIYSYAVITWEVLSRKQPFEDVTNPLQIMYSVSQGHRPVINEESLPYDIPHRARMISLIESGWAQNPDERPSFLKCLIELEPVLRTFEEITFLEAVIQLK

Structure (SMILES) | pIC50 [1] | Emax (RIPK2 (KD)/XIAP (BIR2)) [%] | pIC50 (RIPK2 (KD)/XIAP (BIR2))
COc1cc2ncc(-c3cc(C(=O)NCc4n[nH]c5cccc(F)c45)n(C)n3)n2cc1S(=O)(=O)C(C)(C)C [Example 19, 3-(6-(tert-butylsulfonyl)-7-methoxyimidazo[1,2-a]pyridin-3-yl)-N-((4-fluoro-1H-indazol-3-yl)methyl)-1-methyl-1H-pyrazole-5-carboxamide] | 6.30 to 7.00 | ≥ 80 | > 8.00
COc1cc2ncc(-c3cc(C(=O)NCc4cccc5ccnn45)n(C)n3)n2cc1S(=O)(=O)C(C)(C)C [Example 20, 3-(6-(tert-butylsulfonyl)-7-methoxyimidazo[1,2-a]pyridin-3-yl)-1-methyl-N-(pyrazolo[1,5-a]pyridin-7-ylmethyl)-1H-pyrazole-5-carboxamide] | < 5.60 | ≥ 80 | 6.00 to 7.00
COc1cc2ncc(-c3cc(C(=O)NCc4cccn5ccnc45)n(C)n3)n2cc1S(=O)(=O)C(C)(C)C [Example 21, 3-(6-(tert-butylsulfonyl)-7-methoxyimidazo[1,2-a]pyridin-3-yl)-N-(imidazo[1,2-a]pyridin-8-ylmethyl)-1-methyl-1H-pyrazole-5-carboxamide] | < 5.60 | ≥ 80 | 6.00 to 7.00
COc1cc2ncc(-c3cc(C(=O)NCc4cn5ccccc5n4)n(C)n3)n2cc1S(=O)(=O)C(C)(C)C [Example 22, 3-(6-(tert-butylsulfonyl)-7-methoxyimidazo[1,2-a]pyridin-3-yl)-N-(imidazo[1,2-a]pyridin-2-ylmethyl)-1-methyl-1H-pyrazole-5-carboxamide] | < 5.60 | ≤ 30 | < 6.00
COc1cc2ncc(-c3cc(C(=O)NCc4cc5ccccn5n4)n(C)n3)n2cc1S(=O)(=O)C(C)(C)C [Example 23, 3-(6-(tert-butylsulfonyl)-7-methoxyimidazo[1,2-a]pyridin-3-yl)-1-methyl-N-(pyrazolo[1,5-a]pyridin-2-ylmethyl)-1H-pyrazole-5-carboxamide] | 5.60 to 6.30 | ≤ 30 | < 6.00
COc1cc2ncc(-c3cc(C(=O)NCc4ccn(C)n4)n(C)n3)n2cc1S(=O)(=O)C(C)(C)C [Example 24, 3-(6-(tert-butylsulfonyl)-7-methoxyimidazo[1,2-a]pyridin-3-yl)-1-methyl-N-((1-methyl-1H-pyrazol-3-yl)methyl)-1H-pyrazole-5-carboxamide] | 5.60 to 6.30 | ≥ 80 | 6.00 to 7.00
COc1cc2ncc(-c3cc(C(=O)NCc4cnn(C)c4)n(C)n3)n2cc1S(=O)(=O)C(C)(C)C [Example 25, 3-(6-(tert-butylsulfonyl)-7-methoxyimidazo[1,2-a]pyridin-3-yl)-1-methyl-N-((1-methyl-1H-pyrazol-4-yl)methyl)-1H-pyrazole-5-carboxamide] | < 5.60 | ≤ 30 | < 6.00
COc1cc2ncc(-c3cc(C(=O)NCc4ccccn4)n(C)n3)n2cc1S(=O)(=O)C(C)(C)C [Example 26, 3-(6-(tert-butylsulfonyl)-7-methoxyimidazo[1,2-a]pyridin-3-yl)-1-methyl-N-(pyridin-2-ylmethyl)-1H-pyrazole-5-carboxamide] | 5.60 to 6.30 | ≥ 80 | 6.00 to 7.00
COc1cc2ncc(-c3cc(C(=O)NCc4cccnc4)n(C)n3)n2cc1S(=O)(=O)C(C)(C)C [Example 27, 3-(6-(tert-butylsulfonyl)-7-methoxyimidazo[1,2-a]pyridin-3-yl)-1-methyl-N-(pyridin-3-ylmethyl)-1H-pyrazole-5-carboxamide] | < 5.60 | 55 to 80 | < 6.00
COc1cc2ncc(-c3cc(C(=O)NCc4ccccc4)n(C)n3)n2cc1S(=O)(=O)C(C)(C)C [Example 28, N-benzyl-3-(6-(tert-butylsulfonyl)-7-methoxyimidazo[1,2-a]pyridin-3-yl)-1-methyl-1H-pyrazole-5-carboxamide] | 5.60 to 6.30 | ≥ 80 | 6.00 to 7.00
COc1cc2ncc(-c3cc(C(=O)NCc4ccncc4)n(C)n3)n2cc1S(=O)(=O)C(C)(C)C [Example 29, 3-(6-(tert-butylsulfonyl)-7-methoxyimidazo[1,2-a]pyridin-3-yl)-1-methyl-N-(pyridin-4-ylmethyl)-1H-pyrazole-5-carboxamide] | < 5.60 | ≤ 30 | < 6.00
C[C@@H](NC(=O)c1cc(-c2cnc3cc(OCCO)c(S(=O)(=O)C(C)(C)C)cn23)nn1C)c1ccccc1 [Example 32, (R)-3-(6-(tert-butylsulfonyl)-7-(2-hydroxyethoxy)imidazo[1,2-a]pyridin-3-yl)-1-methyl-N-(1-phenylethyl)-1H-pyrazole-5-carboxamide] | > 7.00 | ≥ 80 | > 8.00
COc1cc2ncc(-c3cc(C(=O)N[C@H](C)C4CC4)n(C)n3)n2cc1S(=O)(=O)C(C)(C)C [Example 35, (R)-3-(6-(tert-butylsulfonyl)-7-methoxyimidazo[1,2-a]pyridin-3-yl)-N-(1-cyclopropylethyl)-1-methyl-1H-pyrazole-5-carboxamide] | < 5.60 | 30 to 55 | < 6.00
COc1cc2ncc(-c3cc(C(=O)N[C@@H](C)C4CC4)n(C)n3)n2cc1S(=O)(=O)C(C)(C)C [Example 36, (S)-3-(6-(tert-butylsulfonyl)-7-methoxyimidazo[1,2-a]pyridin-3-yl)-N-(1-cyclopropylethyl)-1-methyl-1H-pyrazole-5-carboxamide] | < 5.60 | 30 to 55 | < 6.00
COc1cc2ncc(-c3cc(C(=O)NC(C)C)n(C)n3)n2cc1S(=O)(=O)C(C)(C)C [Example 37, 3-(6-(tert-butylsulfonyl)-7-methoxyimidazo[1,2-a]pyridin-3-yl)-N-isopropyl-1-methyl-1H-pyrazole-5-carboxamide] | < 5.60 | 30 to 55 | < 6.00
COc1cc2ncc(-c3cc(C(=O)NCC4CC4)n(C)n3)n2cc1S(=O)(=O)C(C)(C)C [Example 38, 3-(6-(tert-butylsulfonyl)-7-methoxyimidazo[1,2-a]pyridin-3-yl)-N-(cyclopropylmethyl)-1-methyl-1H-pyrazole-5-carboxamide] | < 5.60 | 30 to 55 | < 6.00
COc1cc2ncc(-c3cc(C(=O)NCC4CCC4)n(C)n3)n2cc1S(=O)(=O)C(C)(C)C [Example 39, 3-(6-(tert-butylsulfonyl)-7-methoxyimidazo[1,2-a]pyridin-3-yl)-N-(cyclobutylmethyl)-1-methyl-1H-pyrazole-5-carboxamide] | < 5.60 | ≥ 80 | 6.00 to 7.00
COc1cc2ncc(-c3cc(C(=O)NCC4CCCC4)n(C)n3)n2cc1S(=O)(=O)C(C)(C)C [Example 40, 3-(6-(tert-butylsulfonyl)-7-methoxyimidazo[1,2-a]pyridin-3-yl)-N-(cyclopentylmethyl)-1-methyl-1H-pyrazole-5-carboxamide] | < 5.60 | ≥ 80 | 6.00 to 7.00
